Experimental data: patent publication US20250327028A1, “ENGINEERED PLATELETS AS TARGETED PROTEIN DEGRADERS” (Wisconsin Alumni Research Foundation, priority 2024, published 2025)

Columns and labels:
[1] = system: WT MDA-MB-231 cells; test: In-gel fluorescence detection of NA-647 internalization in WT MDA-MB-231 cells; type: cell-based, human
Experimental: (§1) In-gel fluorescence detection: In-gel fluorescence was mainly used to investigate the internalization of NeutrAvidin™_647 in HAC-B-treated cancer cells.
(§2) Sample preparation: 4T1 or WT MDA-MB-231 cells were seeded in 6-well culture plates with a density of 5×10^4 cells in each well and cultured for 24 h. If HAI pretreatment was performed, the cells were incubated in the HAI-containing blank medium at different concentrations for 2 h and washed with PBS twice before the following treatments. Then, the cells were treated with free HAC-B or the combinations of various ligands at the indicated concentrations for the predetermined time points. Next, the drug-containing medium was removed, and PBS was used to wash the cells twice, followed by incubating the cells in the blank medium containing NeutrAvidin™ DyLight™ 650 (NA-647, Invitrogen/84607) at 0.5 μM for 1 h. Finally, the cells were washed with PBS and lysed on ice with the RIPA buffer containing PMSF (1 mM) and the phosphatase inhibitor cocktail for 30 min. A s for the 4T1 cells cotreated with NA-647 and HAC-B, the cells after 24-h incubation were treated with the blank medium containing NA-647 at 0.5 μM and HAC-B at various concentrations for 2 h before cell lysis.
In-gel fluorescence imaging: After 30-min lysis, the lysates were centrifuged at 10,000 g for 10 minutes at 4° C., and the corresponding supernatants were collected, followed by quantification of the total proteins in the supernatant through the BCA assay. Afterward, the proteins in the supernatant were mixed with ¼ volume of 5× sample buffer formulated by Tris-HCl (pH 6.8, 312.5 mM), sucrose (25%), SDS (10%), bromophenol blue (0.025%), and dithiothreitol (DTT, 250 mM). After incubation for 1 h at room temperature, equal amounts of proteins from different samples ([…] per lane) were loaded into the 12% Bis-Tris gel. After the proteins were separated, the gels were subjected to fluorescence imaging with the ChemiDoc™ MP imaging system (Bio-Rad).

[2] = system: 4T1 cells; test: In-gel fluorescence detection of NA-647 internalization in 4T1 cells cotreated with HAC-B; type: cell-based, murine; conditions: 4T1 cells cotreated with HAC-B (all concentrations) and NA-647, 2 h
Experimental: as §1
as §2, with “Finally, the cells were washed with PBS and lysed on ice with the RIPA buffer containing PMSF (1 mM) and the phosphatase inhibitor cocktail for 30 min. A s for the 4T1 cells cotreated with NA-647 and HAC-B, the cells after 24-h incubation were treated with the blank medium containing NA-647 at 0.5 μM and HAC-B at various concentrations for 2 h before cell lysis.” left out
In-gel fluorescence imaging: After 30-min lysis, the lysates were centrifuged at 10,000 g for 10 minutes at 4° C., and the corresponding supernatants were collected, followed by quantification of the total proteins in the supernatant through the BCA assay. […] After the proteins were separated, the gels were subjected to fluorescence imaging with the ChemiDoc™ MP imaging system (Bio-Rad).

[3] = system: HSP90 and BRD4; test: co-Immunoprecipitation of BRD4 with anti-HSP90 antibody in 4T1 cell lysate; type: cell-based, murine; conditions: 4T1 cells, 10 μM, 2 h
Experimental: co-Immunoprecipitation assay: 2×10^6 4T1 cells were seeded in T75 cell culture flasks and cultured for 24 h. Then, the medium in the corresponding flasks was replaced with 15 mL of blank medium with DMSO or iHAC (10 μM). Following incubation for another 2 h, the cells were washed with cold PBS twice and digested with 2 mL of trypsin. As for the iDePMP treatment, 1×10^9 iDePLTs were generated as the above engineering method and suspended in 3 mL of PBS containing thrombin (0.5 U/mL), followed by incubation at 37° C. for 0.5 h. The platelet suspensions were evenly divided and subjected to a sequentially combined centrifugation at 5000 g for 5 min and at 11,000 g for 1 min, followed by further centrifugation at 2500 g for 15 min at room temperature. The combined supernatants were supplemented to 12 mL blank medium to treat 4T1 cells in the relevant flasks. After incubation for 6 h, the cells were washed with cold PBS twice and digested with 2 mL of trypsin. The cell pellets were collected through centrifugation at 1200 rpm for 3 min and washed with cold PBS. The final pellets were directly lysed on ice with RIPA buffer containing PMSF (1 mM) and the phosphatase inhibitor cocktail for 30 min. […] The total proteins in the precleared samples were quantified through the BCA assay, and 20 μL of the precleared solution samples were saved as the input samples. […]

[4] = system: 4T1-Luc tumors; test: Treatment efficacy in post-surgery BALB/c mice with orthotopic 4T1-Luc breast cancer; type: in vivo; conditions: 2×10^8 platelets i.v. or free HAC 5 mg/kg i.p., every third day for 4 times
Text: Evaluation of treatment efficacy and biosafety in post-surgical 4T1 tumor-bearing mice: Post-surgery BALB/c mice with orthotopic 4T1-Luc-breast cancer were used to evaluate the tumor recurrence, metastasis, and biosafety profiles after iDePLT or eDePLT treatments. The treatment efficacy of iDePLT was also studied in the post-surgery NSG mice with orthotopic patient-derived xenografts (PDX) breast cancer.
Establishment of post-surgery models with BALB/c mice: 1×10^6 4T1-Luc cells were suspended in a PBS containing 50% Matrigel® (Corning®/354234). Female 8-week-old BALB/c mice were anesthetized and injected with 50 μL of the cell suspensions into the fourth mammary gland fat pads. After the tumor volumes reached about 100-200 mm^3, the tumor-bearing mice were anesthetized and placed under the microscope, followed by surgical resection to totally remove the visible tumor tissues. Following wound closure, the post-surgery mice were randomly assigned to different treatment groups.
Evaluation of treatment efficacy and biosafety in post-surgery BALB/c mice: As for the treatments with platelets, the platelets were freshly isolated from the healthy female BALB/c mice and suspended in PBS for intravenous (i.v.) injection after the necessary engineering. The free iHAC and eHAC were intraperitoneally (i.p.) injected after dispersing in the formulation of 10% DMSO, 40% polyethylene glycol 300 (PEG300), 5% Tween TM-80, and 45% saline. From the same day after surgery, the mice were anesthetized and i.p. injected with D-luciferin potassium salt (150 mg/kg) in 100 μL in PBS. The bioluminescence of post-surgery mice in each group was detected by Perkin Elmer IVIS every five days from the day of surgery, and intensity was analyzed by Living Image Software v.4.3.1. […] During the treatment course, the body weight of each post-surgery mouse was monitored daily. […]

| Structure (SMILES) | internalization of NA-647 after optimized pretreatment ([1]; HAC-B pretreatment 5 μM, 4 h) | internalization of extracellular NA-647 ([1]; WT MDA-MB-231 cells, HAC-B pretreatment, then NA-647 0.5 μM 1 h) | internalization of NA-647 on cotreatment [2] | BRD4 co-precipitated with anti-HSP90 antibody [3] | lung metastasis (bioluminescence) [4] | tumor recurrence at the surgical site (bioluminescence) [4] |
| --- | --- | --- | --- | --- | --- | --- |
| N#CCN(C(=O)CCCC[C@@H]1SC[C@@H]2NC(=O)N[C@@H]21)S(=O)(=O)c1ccc(C(=O)NCCCn2c(Sc3cc4c(cc3I)OCO4)nc3c(N)ncnc32)cc1 [HAC-B, N-(3-(6-amino-8-((6-iodobenzo[d][1,3]dioxol-5-yl)thio)-9H-purin-9-yl)propyl)-4-(N-(cyanomethyl)-N-(5-((3aS,4S,6aR)-2-oxohexahydro-1H-thieno[3,4-d]imidazol-4-yl)pentanoyl)sulfamoyl)benzamide] | substantially internalize NA-647 | enhance the internalization of extracellular NA-647 in a time and concentration-dependent manner | failed to internalize NA-647 in a large quantity within 2 h |  |  |  |
| Cc1sc2c(c1C)C(c1ccc(Cl)cc1)=N[C@@H](CC(=O)NCc1cn(CCCC(=O)N(CC#N)S(=O)(=O)c3ccc(C(=O)NCCCn4c(Sc5cc6c(cc5I)OCO6)nc5c(N)ncnc54)cc3)nn1)c1nnc(C)n1-2 [iHAC, (S)—N-(3-(6-amino-8-((6-iodobenzo[d][1,3]dioxol-5-yl)thio)-9H-purin-9-yl)propyl)-4-(N-(4-(4-((2-(4-(4-chlorophenyl)-2,3,9-trimethyl-6H-thieno[3,2-f][1,2,4]triazolo[4,3-a][1,4]diazepin-6-yl)acetamido)methyl)-1H-1,2,3-triazol-1-yl)butanoyl)-N-(cyanomethyl)sulfamoyl)benzamide] |  |  |  | could considerably enhance the interaction between BRD4 and HSP90 | started to exhibit obvious lung metastasis from day 15 after surgery | showed some anti-relapse effect during the dosing time, but the mice finally showed substantially recurrent tumors on day 20 |
